In ChEMBL document CHEMBL1759841, “8-Hydroxynaphthalene-1,4-dione derivative as novel compound for glioma treatment” (Bioorg Med Chem Lett, 2011):

Tests used:
[1] = Inhibition of CK2
[2] = Inhibition of CK1
[3] = target: T1, Aurora kinase A (Homo sapiens, UniProt O14965); experiment: Inhibition of Aurora A
T1 sequence (O14965 whole entry): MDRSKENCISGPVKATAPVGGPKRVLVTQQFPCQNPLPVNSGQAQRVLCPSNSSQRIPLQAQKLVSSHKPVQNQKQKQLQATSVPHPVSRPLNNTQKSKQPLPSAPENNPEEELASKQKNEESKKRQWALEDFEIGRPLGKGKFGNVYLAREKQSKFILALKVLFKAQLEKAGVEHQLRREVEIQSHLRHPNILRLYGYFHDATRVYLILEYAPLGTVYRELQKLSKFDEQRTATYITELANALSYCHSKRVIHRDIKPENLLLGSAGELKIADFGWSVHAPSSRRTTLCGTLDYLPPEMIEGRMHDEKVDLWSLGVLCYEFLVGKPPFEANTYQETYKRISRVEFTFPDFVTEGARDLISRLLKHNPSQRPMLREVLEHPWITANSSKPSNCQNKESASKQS

[4] = Inhibition of PKA
[5] = target: Dual specificity tyrosine-phosphorylation-regulated kinase 1A (Homo sapiens, UniProt Q13627); experiment: Inhibition of DYRK1a

Structure (SMILES) | IC50 [1] [µM] | IC50 [2] [µM] | IC50 [3] [µM] | IC50 [4] [µM] | IC50 [5] [µM]
Cc1ccc(S(=O)(=O)Oc2ccc3ccc(O)cc3c2)cc1 | > 40 | > 40 |  |  | 
CCN(CC)CCC(=O)Nc1ccc(O)c2c1C(=O)c1cccc(O)c1C2=O | > 40 | > 40 |  |  | 
Cc1coc2cc3oc(=O)c(NC(=O)CN)cc3cc12 | > 40 | > 40 |  |  | 
O=C1C=C(c2ccc(O)c(O)c2O)C(=O)c2c1cccc2[N+](=O)[O-] | 23 | > 40 | 4.8 | 14 | 
C[N+](C)(C)CC(=O)OCc1cc(O)c2c(c1)C(=O)c1cccc(O)c1C2=O | > 40 | > 40 |  |  | 
C[N+]1(Cc2cc(O)c3c(c2)C(=O)c2cccc(O)c2C3=O)CCOCC1 | > 40 | 10 |  |  | 
CN(C)c1ccc(C=C2C(=O)NC(=O)NC2=O)cc1 | > 40 | > 40 |  |  | 
O=C1NC(=O)C(=Cc2ccc(O)cc2O)C(=O)N1 | > 40 | > 40 |  |  | 
CC1c2cc(Br)c(O)c(Br)c2OC(=O)C1Br (stereo unspecified) | 2 | > 40 |  |  | 
O=C1C=C(c2ccc(O)c(O)c2O)C(=O)c2c(O)ccc(O)c21 | 3.5 | > 40 | 6.2 |  | 21.4
O=c1ccc2cc(S(=O)(=O)N3CCNCC3)cc(Cl)c2o1 | > 40 | > 40 |  |  | 
